Conditions: 323.15 K, Liquid, Vibrating tube method

CCCCCCCC(=O)OCC(COC(=O)CCCCCCC)(COC(=O)CCCCCCC)COC(=O)CCCCCCC [pentaerythritol tetraoctanoate]
Conditions | mass density [kg/m3]
7680.3 kPa | 945.8
7700.7 kPa | 945.8
7720.9 kPa | 945.7
7748.8 kPa | 945.9
7769.4 kPa | 945.7
7790.4 kPa | 945.9
7811.3 kPa | 946
7832.2 kPa | 945.9
7857.7 kPa | 945.9
7878.8 kPa | 945.8
7900.5 kPa | 945.9
7922.1 kPa | 946
7947.7 kPa | 946
7968.9 kPa | 945.8
7990.6 kPa | 946
8017 kPa | 946
8039.8 kPa | 946
8061.6 kPa | 946.2
8084.3 kPa | 946.1
8107.1 kPa | 946.1
8134 kPa | 946.1
8156.6 kPa | 946
8179.4 kPa | 946.1
8206.5 kPa | 946
8229.4 kPa | 946.2
8252.6 kPa | 946.2
8275.8 kPa | 946.2
8303.6 kPa | 946.2
8327.1 kPa | 946.2
8355.7 kPa | 946.2
8379.5 kPa | 946.3
8404.2 kPa | 946.3
8428.3 kPa | 946.3
8452.5 kPa | 946.3
8482 kPa | 946.4
8506.8 kPa | 946.2
8531.5 kPa | 946.4
8560.6 kPa | 946.4
8585.3 kPa | 946.5
8610.8 kPa | 946.4
8640.7 kPa | 946.4
8666 kPa | 946.4
8691.5 kPa | 946.4
8722.7 kPa | 946.4
8748.4 kPa | 946.5
8774.8 kPa | 946.4
8806.4 kPa | 946.5
8832.8 kPa | 946.4
8859.7 kPa | 946.6
8886 kPa | 946.5
8918.8 kPa | 946.5
8945.9 kPa | 946.6
8972.8 kPa | 946.7
9006 kPa | 946.7
9034.1 kPa | 946.6
9062.8 kPa | 946.7
9092.9 kPa | 946.7
9121.3 kPa | 946.8
9155.1 kPa | 946.7
9183.5 kPa | 946.9
9212.7 kPa | 946.8
9247.8 kPa | 946.8
9276.8 kPa | 946.9
9311.6 kPa | 946.9
9341.2 kPa | 946.9
9371.1 kPa | 946.9
9401 kPa | 946.9
9437.9 kPa | 946.9
9469.8 kPa | 947
9503.2 kPa | 946.9
9534 kPa | 947.1
9570.9 kPa | 946.9
9602.4 kPa | 947
9633.9 kPa | 947
9665.6 kPa | 947.2
9704.2 kPa | 947.1
9736 kPa | 947.1
9774.4 kPa | 947.2
9806.9 kPa | 947.2
9834 kPa | 947.1
9860.5 kPa | 947.3
9901 kPa | 947.3
9949.2 kPa | 947.4
9984 kPa | 947.3
10026 kPa | 947.2
10059 kPa | 947.3
10090 kPa | 947.3
10128 kPa | 947.3
10160 kPa | 947.4
10192 kPa | 947.5
10231 kPa | 947.6
10264 kPa | 947.5
10297 kPa | 947.6
10337 kPa | 947.5
10372 kPa | 947.6
10405 kPa | 947.5
10435 kPa | 947.6
10467 kPa | 947.6
10494 kPa | 947.6
10520 kPa | 947.7
10553 kPa | 947.7
10580 kPa | 947.7
10608 kPa | 947.6
10643 kPa | 947.8
10672 kPa | 947.8
10695 kPa | 947.7
10719 kPa | 947.8
10739 kPa | 947.8
10759 kPa | 947.6
10779 kPa | 947.8
10802 kPa | 947.8
10822 kPa | 947.8
10847 kPa | 947.8
10867 kPa | 947.8
10887 kPa | 948
10911 kPa | 947.9
10932 kPa | 947.8
10948 kPa | 947.9
10977 kPa | 947.9
10997 kPa | 948
11019 kPa | 948.1
11040 kPa | 948.1
11065 kPa | 948
11086 kPa | 948
11111 kPa | 948
11132 kPa | 948.1
11153 kPa | 948.1
11175 kPa | 948.1
11200 kPa | 948.1
11222 kPa | 948.1
11248 kPa | 948.1
11270 kPa | 948.1
11292 kPa | 948.1
11319 kPa | 948.1
11341 kPa | 948.1
11362 kPa | 948.1
11384 kPa | 948.3
11411 kPa | 948.3
11433 kPa | 948.2
11460 kPa | 948.2
11483 kPa | 948.3
11506 kPa | 948.3
11533 kPa | 948.3
11555 kPa | 948.4
11579 kPa | 948.2
11607 kPa | 948.3
11626 kPa | 948.3
11654 kPa | 948.4
11678 kPa | 948.2
11701 kPa | 948.4
11725 kPa | 948.5
11744 kPa | 948.5
11768 kPa | 948.4
11792 kPa | 948.5
11831 kPa | 948.4
11855 kPa | 948.5
11880 kPa | 948.5
11909 kPa | 948.5
11935 kPa | 948.6
11961 kPa | 948.6
11986 kPa | 948.6
12010 kPa | 948.7
12041 kPa | 948.6
12065 kPa | 948.7
12095 kPa | 948.6
12120 kPa | 948.8
12146 kPa | 948.6
12176 kPa | 948.6
12202 kPa | 948.7
12228 kPa | 948.6
12255 kPa | 948.7
12286 kPa | 948.8
12313 kPa | 948.8
12339 kPa | 948.9
12456 kPa | 948.9
12482 kPa | 948.9
12510 kPa | 948.9
12537 kPa | 948.9
12570 kPa | 949
12598 kPa | 948.9
12626 kPa | 949
12660 kPa | 949
12688 kPa | 948.9
12716 kPa | 949
12744 kPa | 949
12777 kPa | 949
12805 kPa | 949.1
12839 kPa | 949
12868 kPa | 949.1
12897 kPa | 949.2
12932 kPa | 949.2
12961 kPa | 949.2
12990 kPa | 949.1
13026 kPa | 949.2
13056 kPa | 949.3
13080 kPa | 949.2
13104 kPa | 949.2
13134 kPa | 949.3
13170 kPa | 949.2
13212 kPa | 949.4
13248 kPa | 949.4
13279 kPa | 949.3
13310 kPa | 949.4
13347 kPa | 949.3
13378 kPa | 949.4
13409 kPa | 949.6
13447 kPa | 949.6
13479 kPa | 949.6
13511 kPa | 949.5
13543 kPa | 949.5
13581 kPa | 949.7
13614 kPa | 949.7
13652 kPa | 949.6
13685 kPa | 949.7
13717 kPa | 949.6
13756 kPa | 949.7
13790 kPa | 949.6
13823 kPa | 949.7
13863 kPa | 949.7
13897 kPa | 949.9
13932 kPa | 949.7
13965 kPa | 949.8
14007 kPa | 949.9
14041 kPa | 949.7
14076 kPa | 949.9
14118 kPa | 950
14152 kPa | 949.9
14187 kPa | 950
14230 kPa | 949.9
14266 kPa | 950
14301 kPa | 950.1
14345 kPa | 950.1
14376 kPa | 950.2
14414 kPa | 950.2
14452 kPa | 950.1
14505 kPa | 950.1
14544 kPa | 950.2
14573 kPa | 950.2
14617 kPa | 950.1
14647 kPa | 950.2
14671 kPa | 950.2
14707 kPa | 950.5
14738 kPa | 950.3
14780 kPa | 950.3
14812 kPa | 950.5
14846 kPa | 950.5
14877 kPa | 950.3
14909 kPa | 950.4
14947 kPa | 950.5
14979 kPa | 950.4
15012 kPa | 950.5
15052 kPa | 950.5
15085 kPa | 950.5
15114 kPa | 950.5
15143 kPa | 950.5
15167 kPa | 950.6
15191 kPa | 950.6
15220 kPa | 950.7
15246 kPa | 950.5
15270 kPa | 950.6
15299 kPa | 950.6
15324 kPa | 950.7
15350 kPa | 950.7
15374 kPa | 950.8
15404 kPa | 950.8
15430 kPa | 950.7
15454 kPa | 950.8
15485 kPa | 950.7
15510 kPa | 950.9
15541 kPa | 950.8
15567 kPa | 950.8
15594 kPa | 950.8
15619 kPa | 950.8
15650 kPa | 950.8
15677 kPa | 950.9
15702 kPa | 950.9
15734 kPa | 950.9
15761 kPa | 950.9
15787 kPa | 950.9
15818 kPa | 951
15845 kPa | 951.2
15872 kPa | 951
15903 kPa | 951.1
15931 kPa | 951.1
15954 kPa | 951
15980 kPa | 951.1
16008 kPa | 951.1
16046 kPa | 951.2
16073 kPa | 951.1
16106 kPa | 951.3
16134 kPa | 951.1
16161 kPa | 951.3
16194 kPa | 951.1
16222 kPa | 951.3
16245 kPa | 951.2
16273 kPa | 951.4
